Target: T1, human TAS1R2-R317G (subunit alone) (Homo sapiens, UniProt Q8TE23, R317G)
T1 construct: expressed in transfected cells; host or cells: HEK293T-Gα16gust44
T1 sequence (Q8TE23 20-839 R317G): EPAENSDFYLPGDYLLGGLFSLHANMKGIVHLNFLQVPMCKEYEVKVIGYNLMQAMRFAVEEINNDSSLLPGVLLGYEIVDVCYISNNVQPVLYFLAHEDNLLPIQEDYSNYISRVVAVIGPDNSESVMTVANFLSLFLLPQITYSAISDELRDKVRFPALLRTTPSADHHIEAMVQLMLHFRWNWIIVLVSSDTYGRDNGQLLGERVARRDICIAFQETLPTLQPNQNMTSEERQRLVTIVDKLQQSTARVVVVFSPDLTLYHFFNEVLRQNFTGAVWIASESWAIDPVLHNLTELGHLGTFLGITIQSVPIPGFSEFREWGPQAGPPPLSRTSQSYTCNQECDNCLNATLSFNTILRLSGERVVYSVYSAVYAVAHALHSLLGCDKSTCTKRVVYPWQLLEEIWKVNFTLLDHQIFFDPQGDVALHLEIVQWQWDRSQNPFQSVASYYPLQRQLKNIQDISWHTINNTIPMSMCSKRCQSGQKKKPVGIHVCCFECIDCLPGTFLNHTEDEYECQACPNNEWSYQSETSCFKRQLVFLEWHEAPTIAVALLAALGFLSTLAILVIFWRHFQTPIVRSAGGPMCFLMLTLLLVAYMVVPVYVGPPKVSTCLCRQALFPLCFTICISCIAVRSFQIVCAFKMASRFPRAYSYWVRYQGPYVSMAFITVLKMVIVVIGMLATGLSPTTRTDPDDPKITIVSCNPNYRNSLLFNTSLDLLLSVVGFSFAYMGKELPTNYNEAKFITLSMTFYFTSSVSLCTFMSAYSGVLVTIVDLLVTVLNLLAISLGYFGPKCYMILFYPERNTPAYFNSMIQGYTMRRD
Test: Calcium mobilisation assay, TAS1R2-R317G subunit alone
Format: cell-based
Description: The coding sequences for TAS1R2 and TAS1R3 were commercially synthesised, and the human codon was optimised for expression in human cells. The coding sequences of human TAS1R2 and TAS1R3 were subcloned and inserted into the mammalian expression vectors pcDNA6/myc-HisA and pcDNA4/myc-HisA (Invitrogen; Thermo Fisher Scientific; Illkirch, France) between the EcoRI and NotI restriction sites, generating the plasmids pcDNA6-TAS1R2 and pcDNA4-TAS1R3, respectively. To increase protein expression in mammalian cells, an upstream start codon was used, which was a sequence called MAX, corresponding to the QBI SP163 element also described in pcDNA4-HisMax (Invitrogen; Thermo Fisher Scientific; Illkirch, France). To measure the expression level of the receptor by immunohistochemistry, we used the FLAG sequence ([…]) in the C-terminal position, which encodes the FLAG tag epitope. […]
The HEK293T cells were kindly provided by Jay P. Slack (Givaudan Flavors Corporation; Cincinnati, OH, USA). […] The fluorescence intensity was measured for 90 s (excitation 488 nm, emission 510 nm) in an automated fluorometric FlexStation®3 Multi-Mode microplate reader (Molecular Devices; San Jose, CA, USA). […] The Ca^2+ changes were expressed as fractional changes in fluorescent light intensity: ΔF/F = (F − F0)/F0, where F was the fluorescent light intensity at each point, and F0 was the value of emitted fluorescent light prior to stimulus application. To calculate dose–response relationships, the changes in fluorescence upon stimulus application were averaged, mock-subtracted and baseline-corrected. […] The half-maximal effective concentrations (EC50 values) and maximal signal amplitudes were calculated using SigmaPlot software (version 15.0) (Systat Software; San Jose, CA, USA).
For in vitro calcium mobilisation assay performed on hTAS1R2-SNPs, hTAS1R3-SNPs and mTAS1R3-I60T, 6 to 7 concentrations were tested for each sweet compound, plus buffer alone. All concentration–receptor combinations were measured in duplicate, and each experiment was repeated at least 4 times (8 wells/concentration). […]

Structure (SMILES): C=C(C)[C@@H]1CC=C(/C=N/O)CC1 [Perillartine, perillartine]
- EC50: 225 ± 31.9 µM
- R1 = Variant EC50/WT EC50: 2.5
- Max ΔF/F0 (maximal signal amplitude): 0.17 ± 0.01
